In patent US20230398109A1, “USE OF PQQ AND DERIVATIVE THEREOF” (GUANGZHOU HUTONGYOUWU BIOTECHNOLOGY CO., LTD, priority 2021, published 2023):

Assays:
Assay type in all cases: in vivo, human
[1] = tested on: patients with menstrual abnormalities; test: Treatment of patients with abnormal menstruation, oral PQQ vs placebo, 3 months; details: experimental group
Procedure: Experiment number: 100 peoples diagnosed with menstrual abnormalities, 50 people in the experimental group and the control group each. Experimental method: administering PQQ orally to the patients of experimental group, administering placebo orally to the patients of control group. The duration of the experiment was 3 months, and menstrual conditions (duration of menstrual, consumption and weights of sanitary napkin) were measured and recorded.

[2] = tested on: patients with secondary dysmenorrhea; test: Treatment of patients with secondary dysmenorrhea, oral PQQ vs placebo, 3 months; details: for Proportion of people with alleviation in secondary dysmenorrhea: 50 people
Procedure: Experiment number: 100 peoples have been diagnosed with secondary dysmenorrhea, with 50 peoples in the experimental group and the control group each. Experimental method: administering PQQ orally to the patients of experimental group, administering placebo orally to the patients of control group. The duration of the experiment was 3 months, and menstrual pain and pregnancy were asked and recorded. The dysmenorrhea index is determined based on the VAS scoring standard, which means patients self-evaluate the intensity of pain and the degree of psychologically unpleasant experience according to the degree of pain they feel, including: • 0 points: no pain; • 1-3 points: mild pain; • 4-6 points: moderate pain; • 7-9 points: severe pain; • 10 points: unbearable pain.

[3] = tested on: patients with primary dysmenorrhea; test: Treatment of patients with primary dysmenorrhea, oral PQQ vs placebo, 3 months; details: for Proportion of people with alleviation in primary dysmenorrhea (self-assessment): 50 people
Text: Experiment number: 100 people have been diagnosed with primary dysmenorrhea, 50 people in the experimental group and the control group. Experimental method: administering PQQ orally to the patients of experimental group, administering placebo orally to the patients of control group. The duration of the experiment was 3 months, and menstrual pain was asked and recorded.

O=C(O)c1cc(C(=O)O)c2c(n1)C(=O)C(=O)c1cc(C(=O)O)[nH]c1-2 [PQQ, 4,5-dioxo-1H-pyrrolo[2,3-f]quinoline-2,7,9-tricarboxylic acid]
average monthly menstrual bleeding duration after treatment ([1]; 3 months oral, FIG. 2): about 1 week
decrease of average amount of menstrual bleeding ([1]; 3 months oral, FIG. 3 (sanitary napkin consumption)): more than 30%
average monthly menstrual bleeding duration at beginning of the experiment ([1]; baseline, FIG. 2): about 2 weeks
average dysmenorrhea index (VAS score) change ([2]; FIG. 1, during treatment): decreased significantly
Proportion of people with alleviation in secondary dysmenorrhea ([2]; evaluation time 1 month): 82%
Proportion of people with alleviation in secondary dysmenorrhea ([2]; evaluation time 3 months): 100%
cases that became pregnant ([2]; experimental group of 50, 3 months): 2 cases
dysmenorrhea index alleviated compared to the beginning of the experiment ([2]; experimental group, 3 months): 100%
Proportion of people with alleviation in primary dysmenorrhea (self-assessment) ([3]; evaluation time 1 month): 98%
Proportion of people with alleviation in primary dysmenorrhea (self-assessment) ([3]; evaluation time 3 months): 100%
dysmenorrhea index alleviated compared to beginning of the experiment ([3]; experimental group, 3 months): 100%
